Read-outs that look alike come from different tables or passages of the source.

Here are results for four molecules from patent US11970600B2, “Di-cumyl peroxide crosslinking of UHMWPE” (priority 2021, dated 2024).

On the set-up of data set [1]: species or system humans. The following applies: for ALfemale (allowable limit): adult females, 58 kg body weight; for ALmale (allowable limit): adult males, 70 kg body weight. The protocol: Toxicological risk assessment of five previously characterized byproducts, per Sayoun, J; Crepet A; Gouanve F; Keromnes L; Espuche E. 2017. “Diffusion mechanism of byproducts resulting from the peroxide crosslinking of polyethylene.” J. Appl. Polym. Sci. 44525. doi: 10.1002/APP.44525, was carried out following ISO 10993-17:2002. Quantification was based on the maximum amount of chemical exposures from the anticipated maximum number of implants a patient may receive (in this case, 4 implants). An exhaustive literature search for toxicity data was conducted specific to each chemical of interest. This was accomplished via ToxPlanet (a federated search engine that extracts the content from 500+ websites). Biocompatibility endpoints were determined based on ISO 10993-1:2018 and recent United States Food and Drug Administration (US Food and Drug Administration 2016a. “Use of International Standard ISO-10993, ‘Biological evaluation of medical devices—Part 1: Evaluation and testing within a risk management process’: Guidance for Industry and Food and Drug Administration Staff.” Center for Devices and Radiological Health (CDRH), 68p). These endpoints include chronic toxicity, reproductive and developmental toxicity, genotoxicity, carcinogenicity, and sensitization.
The in silico methods utilized an expert-rule-based program (Toxtree version 3.1.0; Ideaconsult Ltd., 2018) and the statistics-based program VEGA version 1.2.8 and Benfenati, E; Manganaro, A; Gini, G. 2013. “VEGA-QSAR: AI inside a platform for predictive toxicology.” In CEUR Workshop Proceedings, Volume 1107: Proceedings of The Second Workshop on Popularize Artificial Intelligence, (PAI 2013), Turin, Italy), consistent with the International Council for Harmonisation of Technical Requirements for Pharmaceuticals for Human Use (ICH) and US FDA guidelines for the assessment of DNA reactive impurities in pharmaceuticals (M7 guidelines; International Council for Harmonisation of Technical Requirements for Pharmaceuticals for Human Use (ICH). 2017a. “ICH Harmonised Guideline: Assessment and Control of DNA Reactive (Mutagenic) Impurities in Pharmaceuticals to Limit Potential Carcinogenic Risk M7(R1) (Current Step 4 Version); US Food and Drug Administration (US FDA 2018. “Guidance for Industry: M7(R1) Assessment and Control of DNA Reactive (Mutagenic) Impurities in Pharmaceuticals to Limit Potential Carcinogenic Risk.” Center for Drug Evaluation and Research (CDER), Center for Biologics Evaluation and Research (CBER)).
The allowable limit (AL) was calculated using the no-observed-adverse-effect level (NOAEL) limits ascertained from the literature search and in silico methods described above. The NOAELs were then adjusted by the average body weight (BW) for adult males (70 kg) and adult females (58 kg). Following the recommendations of ISO 10993-17 and ICH Q3C(R7) (International Organization for Standardization (ISO). 2002. “ISO 10993-17: Biological Evaluation of Medical Devices—Part 17: Establishment of Allowable Limits for Leachable Substances.” ISO 10993-17: 2002; International Council for Harmonisation of Technical Requirements for Pharmaceuticals for Human Use (ICH). 2018. “ICH Harmonised Guideline: Impurities: Guideline for Residual Solvents Q3C(R7) (Current Step 4 Version).”), the values were then adjusted by a series of uncertainty factors (UFs). UF1=10 to account for interindividual variation; UF2=5 for extrapolation of effects from rats to humans; UF3=10 to account for extrapolation from an oral exposure study to systemic exposure risk associated with an implanted device; UF4=5 to account for extrapolation of results from a 90-day toxicity study in rodents to lifetime exposure associated with a permanent implant; and UF5=10 to account for extrapolation of a lowest-observed-adverse-effect level (LOAEL) to a NOAEL, if needed.

For data set [2] the following is noted: cited from earlier work.

As to `C=C(CC(C)(C)c1ccccc1)c1ccccc1` [2,4-Diphenyl-4-methyl-1-pentene], in data set [1], the “ALfemale (allowable limit)” value came out at 232 µg/day and the “ALmale (allowable limit)” value turned out to be 280 µg/day.
For the molecule `CC(C)(O)c1ccccc1` [Cumyl alcohol], in data set [1], the “ALfemale (allowable limit)” value is 1,800 μg/day and the “ALmale (allowable limit)” value was 1,800 μg/day.
Regarding `CC(C)(OOC(C)(C)c1ccccc1)c1ccccc1` [Dicumyl peroxide], the half-life temperature was 120 °C in data set [2] (for 1 minute), 80 °C in data set [2] (for 1 hour) and 61 °C in data set [2] (for 10 hours). The “ALfemale (allowable limit)” value in data set [1] is recorded as 1,860 μg/day. The “ALmale (allowable limit)” value in data set [1] is on record as 2,240 μg/day.
Regarding `CC(=O)c1ccccc1` [Acetophenone], in data set [1], the “ALfemale (allowable limit)” value is 9,810 μg/day and the “ALmale (allowable limit)” value was 11,800 μg/day.
